Source: patent publication US9221811B2, “Chromone derivative having osteogenesis promoting effect” (Daiichi Sankyo Company, Limited, priority 2012, dated 2015)

System: female F344 rats
Assay: Effect on bone density (oophorectomized rats, femur, DXA)
Format: in vivo, rat
Settings: 25 mg/kg orally once a day, six days a week, six weeks, Dunnett's test
Description: Eight to 12 week old female F344 rats were purchased from Charles River Laboratories Japan, Inc. and used in the following experiment.
This test was conducted at N=8. Rats were anesthetized by the intraperitoneal administration of 40 mg/kg of Somnopentyl (purchased from Kyoritsu Seiyaku Corporation), followed by oophorectomy.
From the day after surgery, a control group received a 0.5% methyl cellulose solution (purchased from Wako Pure Chemical Industries, Ltd., Cat. No. 133-14255) alone, whereas another group received a suspension of the test compound in this solution (0.5% methyl cellulose solution), for the test.
The administration was performed orally once a day, six days a week. Six weeks after administration, the rats were euthanized by removal of whole blood from the lower abdominal aorta under Somnopentyl anesthesia, and the left and right femur was excised.
After removal of soft tissues, the bone density of the femur thus excised was measured (apparatus: DXA apparatus DCS-600R manufactured by Aloka Co., Ltd.). The bone density was assessed in the whole femur as well as in three equal sections of the whole femur, namely the proximal end, the shaft, and the distal end.
The Dunnett's test was used in certification.

COCC(=O)N1CCC(c2oc3c(C)c(O)ccc3c(=O)c2C)CC1 [Example 11, 7-Hydroxy-2-[1-(methoxyacetyl)piperidin-4-yl]-3,8-dimethyl-4H-chromen-4-one]
bone density of the femur compared with the control group: significantly increased the bone density
